Measured values taken from US6849405B2, “Translation enhancer element of the human amyloid precursor protein gene” (The Brigham and Women's Hospital, Inc., priority 1997, dated 2005).

Columns and labels:
[1] = tested on: APP protein synthesis in primary human fetal astrocytes; test: Intracellular APP protein synthesis, [35S]-methionine pulse labeling and immunoprecipitation, primary astrocytes; assay type: cell-based; details: 0.5 ng/ml, 16 hours, 30 minute [35S]-methionine labeling
Experimental: Primary human astrocytes were prepared by trypsinization of human fetal brain tissue by a previously described method (Das, et al., Neuron 14; 447 (1995)). Cells were seeded onto poly-L-lysine (10 μg/ml) coated plates and were grown to 70% confluence in DMEM medium, (low glucose) supplemented with 10% fetal bovine serum. In order to eliminate microglia, the cultures were treated with 5 mM H-Leu-O-methylester (Guilian, J. Neurosci. Res. 18:155 (1987)). For immunofluorescence, cells were replated at a density of 100,000 cells per 60-mm petri dish on poly-L-lysine coated glass coverslips and grown for 24 hours in 0.5 ml of medium to allow the cells to attach. The presence of glial fibrillary acidic protein (GFAP) was detected by immunofluorescent staining of formaldehyde fixed cells using a 1:10 dilution of rabbit IgG1 antibody specific for human GFAP. Primary GFAP-specific antibody was added to the coverslips for 30 minutes at room temperature in phosphate buffered saline and 10% goat serum. […] Fluorescence microscopy scored the cells used in the metabolic experiments as 95% pure astrocytes. […]
Intracellular APP protein synthesis was determined in primary astrocytes after plating cells in equal numbers into 8 microtiter wells prior to each treatment (1×10^5 cells per well in 96 well dishes). […]

[2] = tested on: APP(s) secretion from primary human astrocytes; test: Secretion of APP(s) (protease-nexin II) into medium from primary astrocytes; assay type: cell-based; details: 2 hour pulse labeling
Experimental: Secretion and labeling of APP(s) (protease-nexin-2) from primary astrocytes by IL-1 was measured in a separate set of experiments. Medium from 100 mm dishes (10 ml) of astrocyte cultures was collected after a 2-hour pulse labeling with 200 μCi/ml [^35S]-methionine. APP in 5 ml of precleared medium was immunoprecipitated using a 1:1500 dilution of rabbit polyclonal serum specific for amino acids 595-611 of APP (R1736, D. Selko). Apolipoprotein E was immunoprecipitated from 5 ml of culture supernatant using a 1:200 dilution of a polyclonal antiserum (Chemicon).
In all labeling experiments, immunoprecipitated protein was collected by the binding of antibody-labeled antigen complexes to Protein A Sepharose™ beads. Immunoprecipitated samples were applied to 10-20% tris-tricine gels (Novex) and the samples were electrophoresed in tris-tricine buffer according to the manufacturer's instructions. The gels were fixed with 25% methanol, […] for 1 hour, treated with fluorographic reagent (Amplify, Amersham) for 30 minutes, dried, and exposed to X-omat Kodak film overnight at −80° C.

[3] = tested on: APP synthesis in human astrocytoma (U373MG) cells; test: APP synthesis, [35S]-methionine labeling and immunoprecipitation, astrocytoma cells; assay type: cell-based; details: 0.5 ng/ml, 16 hrs, maximal
Experimental: (§1) Primary human astrocytes were prepared by trypsinization of human fetal brain tissue by a previously described method (Das, et al., Neuron 14; 447 (1995)). Cells were seeded onto poly-L-lysine (10 μg/ml) coated plates and were grown to 70% confluence in DMEM medium, (low glucose) supplemented with 10% fetal bovine serum. In order to eliminate microglia, the cultures were treated with 5 mM H-Leu-O-methylester (Guilian, J. Neurosci. Res. 18:155 (1987)). For immunofluorescence, cells were replated at a density of 100,000 cells per 60-mm petri dish on poly-L-lysine coated glass coverslips and grown for 24 hours in 0.5 ml of medium to allow the cells to attach. The presence of glial fibrillary acidic protein (GFAP) was detected by immunofluorescent staining of formaldehyde fixed cells using a 1:10 dilution of rabbit IgG1 antibody specific for human GFAP. Primary GFAP-specific antibody was added to the coverslips for 30 minutes at room temperature in phosphate buffered saline and 10% goat serum. The secondary antibodies used were goat anti-rabbit IgG conjugated to fluorescein isothiocyanate at a dilution of 1:100 (Boehringer). Fluorescence microscopy scored the cells used in the metabolic experiments as 95% pure astrocytes. […] The U373MG astrocytoma cell line was cultured on 100 mm uncoated dishes to 60-80% confluence in DMEM medium supplemented with 10% fetal bovine serum. […]

[4] = tested on: L-ferritin synthesis in astrocytoma (U373MG) cells; test: L-ferritin synthesis, astrocytoma cells; assay type: cell-based, human; details: 0.5 ng/ml, 16 hrs
Experimental: as §1

| Substance | increase in the synthesis of intracellular APP [1] | increased accumulation of APP(s) ([2]; medium) | increase in rate of APP synthesis [3] | enhanced rate of L-ferritin synthesis [4] | enhanced secretion of APP(s) into the medium [2] |
| --- | --- | --- | --- | --- | --- |
| interleukin-1α [IL-1α] | 4 fold | 50% | 2.8 fold | 2 fold | – |
| interleukin-1β [IL-1β] | 3 fold | – | 4.3 fold | 2 fold | 1.8 fold |
